Data set [1] relates to tumor cell lines (HCT-116, MES SA/DX-5, Mia Paca-2, Panc-1, Ovcar-3, U-87MG, Caki-2, PC3). In words: Uptake of CLR1501 in cancerous cell lines versus normal cells. It is filed as cell-based. On the procedure:
(§1) Similar experiments were performed on several other cancerous cell lines: colorectal adenocarcinoma, uterine carcinoma, pancreatic carcinoma, ovarian adenocarcinoma, glioblastoma, clear cell carcinoma, and prostate adenocarcinoma. For comparison reasons, normal fibroblast cells were incubated with CLR1501.
(§2) Briefly, cells were plated overnight in micro slides VI (Ibidi, Verona, Wis.). The next day the cells were incubated with 5 μM of CLR1501 for 24 hours at 37° C. The cells were washed with PBS before the images were taken. The images were obtained using Nikon A1R confocal microscope. The length of exposure and intensity of the laser were similar among samples. CLR1501 was obtained using Alexa Fluor 488 filters (488 nm excitation-520 nm emission wavelength).

Data set [2] relates to skin melanoma (A375) cells. In words: Distribution of CLR1501 in cancer skin cells. It is filed as cell-based. On the procedure:
To study the distribution of CLR1501 in cancer skin cells versus normal skin cells, CLR1501 was introduced into skin melanoma (A375) and normal skin (704sk) cells, purchased from ATCC. Both cells were maintained at 37° C. in DMEM media supplemented with 10% FBS and 5% CO2. Before imaging, the cells were removed from flasks with 0.25% trypsin and were allowed to grow overnight on the slides (Ibidi, microslides VI flat, Catalog No: 80626). […] CRL1501 was formulated with 0.4% of Polysorbate 20, 2% of ethanol and saline. After washing thoroughly with PBS, the cells were imaged using Bio-Rad Radiance 2100 MP Rainbow with 1 second exposure time.

Data set [3] has as its system Panc-1 cells (human pancreatic carcinoma). Description: Retention of CLR1501 in pre-incubated Panc-1 cells inoculated into athymic nude mouse. It is filed as in vivo. The following applies: Panc-1 cells incubated 4 hours, then inoculated. On the procedure: FIG. 10 depicts tumor co-localization of CLR1501 in athymic nude mouse. […] The mouse was inoculated with 1×10^6 Panc-1 cells (human pancreatic carcinoma) which were incubated with CLR1501 or Kodak X-Sight 761 or both CLR1501 and Kodak X-Sight 761 for 4 hours. The cells were harvested and inoculated in different spots. The signals from each dye were obtained using Kodak in vivo imaging system (Carestream Health, Woodbridge, Conn.). CLR1501 was excited at 480 and emitted at 520 nm while the Kodak X-Sight was excited at 750 and emitted at 830 nm.

A further data set relates to Caki-2 cells. In words: Co-culture NFA/Caki-2, co-staining with nucleus stain and lysosome marker. It is filed as cell-based. The following applies: 5 μM, 24 hours. On the procedure: (§3) Briefly, NFA and Caki-2 cell lines were co-cultured overnight on micro slide VI (Ibidi, Verona, Wis.). The next day, the cells were incubated with 5 μM of CLR1501 for 24 hours at 37° C. in complete media. The next day after washing with PBS, the cells were co-stained with nucleus stain (Hoechst 33342) and lysosome marker (Lyso-tracker), (Invitrogen, Carlsbad, Calif.). The cells were observed using Nikon A1R confocal microscope. CLR1501 was excited and detected using Alexa-Fluor 488 filter while nucleus stain and lysosome stain were excited and detected using DAPI and Texas-Red filter, respectively.

Data set [4] has as its system NFA cells. The description is as above. It is filed as cell-based. The settings on record: co-culture with Caki-2, 5 μM, 24 hours. On the procedure: as §3
Data set [5] has as its system normal skin (704sk) cells. In words: Distribution of CLR1501 in normal skin cells. The format is cell-based. The settings on record: 7.5 μM, 24 hours. On the procedure:
To study the distribution of CLR1501 in cancer skin cells versus normal skin cells, CLR1501 was introduced into skin melanoma (A375) and normal skin (704sk) cells, purchased from ATCC. Both cells were maintained at 37° C. in DMEM media supplemented with 10% FBS and 5% CO2. Before imaging, the cells were removed from flasks with 0.25% trypsin and were allowed to grow overnight on the slides (Ibidi, microslides VI flat, Catalog No: 80626). The next day, the media was gently replaced with Phosphate Buffered Saline (PBS) and the cells were incubated with 7.5 μM of CLR1501 on DMEM media for 24 hours. CRL1501 was formulated with 0.4% of Polysorbate 20, 2% of ethanol and saline. After washing thoroughly with PBS, the cells were imaged using Bio-Rad Radiance 2100 MP Rainbow with 1 second exposure time.

Data set [6] relates to NFA (normal fibroblast cells). Description: Intensity of signal emitted by CLR1501, confocal microscopy. The following applies: 5 μM CLR1501, 24 hours. The format is cell-based. On the procedure: as §1, §2
(§4) Table 1 illustrates intensity of signal emitted by CLR1501 in cancerous cell lines versus normal cells.

Data set [7] concerns PC3 (prostate adenocarcinoma) cells. Described as above. It is filed as cell-based. The following applies: 5 μM CLR1501, 24 hours. On the procedure:
as §1, §2, §4

For data set [8], the system named is Caki-2 (clear cell carcinoma) cells. The data set is described as above. It is filed as cell-based. The settings on record: 5 μM CLR1501, 24 hours. On the procedure:
as §1, §2, §4

For data set [9], the system named is Panc-1 (pancreatic carcinoma) cells. The description is as above. The format is cell-based. The settings on record: 5 μM CLR1501, 24 hours. On the procedure: as §1, §2, §4
Data set [10] concerns Ovcar-3 (ovarian adenocarcinoma) cells. Described as above. The format is cell-based. The following applies: 5 μM CLR1501, 24 hours. On the procedure:
as §1, §2, §4

Data set [11] deals with NFA cells. In words: Co-culture NFA/PC3, co-staining with nucleus stain and mitochondria marker. The format is cell-based. The following applies: NFA (normal), 5 μM, 24 hours. On the procedure: as §3, with “and PC3” for “and Caki-2”, “and mitochondria” for “and lysosome”, “marker (Mitotracker),” for “marker (Lyso-tracker),”, “488 filter,” for “488 filter”, “DAPI filter” for “DAPI”

The subject of the next data set is PC3 cells. Described as above. The format is cell-based. The settings on record: 5 μM, 24 hours. On the procedure:
as §3, with “and PC3” for “and Caki-2”, “and mitochondria” for “and lysosome”, “marker (Mitotracker),” for “marker (Lyso-tracker),”, “488 filter,” for “488 filter”, “DAPI filter” for “DAPI”

Data set [12] has as its system glioblastoma cells (U87MG). In words: Incubation of glioblastoma cells with CLR1501 and co-staining. The settings on record: 48 hours. The format is cell-based. On the procedure: The following co-stained dyes were used: Hoechst 33342 (1 μg/mL) (nucleus; blue color), Mitotracker (25 nM) (mitochondria, red color) and Blue-White DPX (100 nM) (Endoplasmic Reticulum (ER), blue color) were diluted in PBS and added to the cells for 15 minutes. The cells were washed with PBS and imaged with Bio-Rad Radiance 2100 MP Rainbow.

Data set [13] deals with Panc-1 (pancreatic carcinoma) tumors. In words: In vivo fluorescence imaging of CLR1501 distribution in Panc-1 tumor-bearing athymic nude mice. Also noted: species or system mouse. On the procedure:
Athymic nude mice (Hsd: Athymic Nude-Fox1^nu), inoculated with Panc-1 (Pancreatic carcinoma), were injected with 150 μL of 6 mg/mL CLR1501 formulated in 0.4% Polysorbate 20, 2% ethanol and saline 24 hour and 96 hours prior to imaging. The fluorescence images were obtained using a Kodak In-Vivo Multispectral System FX. The system provides multispectral tuning of excitation light which is able to separate signals from the dye and from the body autofluorescence. Mice were anesthetized by inhalation of isofluorane. The dyes were excited at 570 nm. […] The mouse was inoculated with 1×10^6 Panc-1 cells (human pancreatic carcinoma). […] CLR1501 was excited at 480 and emitted at 520 nm. The intensity was monitored at 24 and 96 hours using Kodak in vivo imaging system (Carestream Health, Woodbridge, Conn.).

For data set [14], the system named is xenograft and spontaneous primary and metastatic human and rodent tumor models. The settings on record: cited from earlier work.
Setting [15] is: injected 96 hours prior to imaging.

Regarding `C[N+](C)(C)CCOP(=O)([O-])OCCCCCCCCCCCCCCCCCCc1ccc(C2=C3C=CC=[N+]3[B-](F)(F)n3cccc32)cc1` [CLR1501, 18-[p-(4,4-difluoro-4-bora-3a,4a-diaza-s-indacene-8-yl)-phenyl]-octadecyl phosphocholine], the “Uptake in cancerous cell lines” value in [1] (FIGS. 2c-2i and 2k-2l, 5 μM, 24 hours) was “significant uptake”. Besides, the “Penetration into the nucleus” value in data set [1] (the in vitro experiments overall) was “does not penetrate inside of the nucleus”. In addition, the “Uptake by tumor cells relative to normal fibroblast cells” value in data set [1] (tumor cells of Table 1 vs NFA) was 6-12 times. The Cellular distribution result in data set [2] (7.5 μM, 24 hours) was “internalization of CLR1501 into numerous fluorescent vesicles that are scattered throughout the cytoplasm”; in [5] it was “transported to the lysosomes where it was degraded”. Besides, the “Early time uptake profile” value in data set [2] (half an hour after incubation) is “signals are thin and limited at the plasma membrane”; in [2] (one hour after incubation) it was “signals are not concentrated solely in the plasma membrane: intracellular structures are also observed”. The “Retention in cancer cells after inoculation” value in [3] is “continues to be retained in these cells after in vivo subcutaneous injection”. Moreover, the Co-localization with nucleus result in the data set on Caki-2 cells (Caki-2 (tumor)), with NFA cells [4] (NFA (normal)), in the data set on NFA cells [11] and with PC3 cells (PC3 (tumor)) was “not co-localized with nucleus” in each case. In addition, the Co-localization with lysosome entry in the data set on Caki-2 cells (Caki-2) is “co-localized with lysosome”; in the data set with NFA cells [4] (NFA), “minimally with NFA”. In addition, the “Relative intensity to normal cells” value in [6] was 1; in data set [7] it was 12.01; in [8] it was 10.11; in data set [9] it was 9.58; in data set [10], 6.2. Besides, the Average grey intensity in data set [6] (37° C.) came out at 14.99; in data set [7] (37° C.), 180.04; in [8] (37° C.), 151.56; in [9] (37° C.), 143.65; in data set [10] (37° C.), 92.86. Also, the Co-localization with mitochondria entry with PC3 cells (PC3) is reported as “co-localized with mitochondria”. Also, the “Site of accumulation in cells” value in [12] is given as “mostly accumulated in cytoplasm of the cells”. The Co-localization with organelles result in [12] (Mitotracker, Blue-White DPX) is “co-localized with mitochondria and ER”. Moreover, in data set [13] (1 mg in 0.15 mL, monitored at 24 and 96 hours, de-skinned), the “Tumor co-localization over time” value was “accumulated in tumor site, while it cleared out from the rest of normal organs”. Also, in data set [13] (injected 150 μL of 6 mg/mL, 24 and 96 hours prior to imaging), the “Distribution of fluorescence signal in vivo” value is recorded as “found mostly in the tumors”. In data set [13] (setting [15]), the “Accumulation in the tumor” value is “more pronounced”. The “Retention of the dye in other tissues” value in data set [13] (setting [15]) is on record as “tremendously reduced”.

In the case of `C[N+](C)(C)CCOP(=O)([O-])OCCCCCCCCCCCCCCCCCCc1ccc(I)cc1` [NM404, 18-p-(iodophenyl)-octadecyl phosphocholine], the “Duration of selective retention in tumors” value in data set [14] (mouse models) is recorded as more than 80 days. In addition, in data set [14] (xenograft and spontaneous primary and metastatic tumor models), the “Tumor models showing selective retention” value is 37 out of 37.
